Earlier results in patent US20200397756A1, “A STABLE PHARMACEUTICAL COMPOSITION OF POORLY SOLUBLE NONSTEROIDAL ANTIANDROGENS” (KASHIV BIOSCIENCES, LLC, priority 2018, published 2020).

Assays:
[1] = water between pH 1 to 11
[2] = not given; remark: listed apart in the source

| solubility in water [1] | permeability | solubility in absolute ethanol [2] | Structure (SMILES) |
| --- | --- | --- | --- |
| practically insoluble | high | sparingly soluble | CNC(=O)c1ccc(N2C(=S)N(c3cnc(C#N)c(C(F)(F)F)c3)C(=O)C23CCC3)cc1F [apalutamide, 4-(7-(6-Cyano-5-(trifluoromethyl)pyridin-3-yl)-8-oxo-6-thioxo-5,7-diazaspiro(3.4)octan-5-yl)-2-fluoro-N-methylbenzamide] |
| practically insoluble | high | sparingly soluble | CNC(=O)c1ccc(N2C(=S)N(c3ccc(C#N)c(C(F)(F)F)c3)C(=O)C2(C)C)cc1F [Enzalutamide, 4-{3-[4-cyano-3-(trifluoromethyl)phenyl]-5,5-dimethyl-4-oxo-2-sulfanylideneimidazolidin-1-yl}-2-fluoro-N-methylbenzamide] |
